Data: patent publication US6416783B1, “Aspartic and malic acid inhibition of ss-glucuronidase” (Wisconsin Alumni Research Foundation, priority 1999, dated 2002)
Values joined by “and” are separate entries in the source; they are usually repeats but may differ in a detail not shown here. Equal entries are not always repeated. Where two headings read alike, the source gives them in different places.

Tests used:
β-glucuronidase = target: T1, β-glucuronidase (Homo sapiens, UniProt P08236); experiment: Standard Test: β-glucuronidase activity of human breast milk with MUG substrate (fluorescence); assay type: biochemical; details: Example 3; for mean (X̄) activity: mean of 3; for Activity (pmole/tube/hr): single replicates
T1 construct: We used human breast milk collected and pooled from a newborn nursery as the β-glucuronidase source; from tissue
T1 sequence (P08236 23-651): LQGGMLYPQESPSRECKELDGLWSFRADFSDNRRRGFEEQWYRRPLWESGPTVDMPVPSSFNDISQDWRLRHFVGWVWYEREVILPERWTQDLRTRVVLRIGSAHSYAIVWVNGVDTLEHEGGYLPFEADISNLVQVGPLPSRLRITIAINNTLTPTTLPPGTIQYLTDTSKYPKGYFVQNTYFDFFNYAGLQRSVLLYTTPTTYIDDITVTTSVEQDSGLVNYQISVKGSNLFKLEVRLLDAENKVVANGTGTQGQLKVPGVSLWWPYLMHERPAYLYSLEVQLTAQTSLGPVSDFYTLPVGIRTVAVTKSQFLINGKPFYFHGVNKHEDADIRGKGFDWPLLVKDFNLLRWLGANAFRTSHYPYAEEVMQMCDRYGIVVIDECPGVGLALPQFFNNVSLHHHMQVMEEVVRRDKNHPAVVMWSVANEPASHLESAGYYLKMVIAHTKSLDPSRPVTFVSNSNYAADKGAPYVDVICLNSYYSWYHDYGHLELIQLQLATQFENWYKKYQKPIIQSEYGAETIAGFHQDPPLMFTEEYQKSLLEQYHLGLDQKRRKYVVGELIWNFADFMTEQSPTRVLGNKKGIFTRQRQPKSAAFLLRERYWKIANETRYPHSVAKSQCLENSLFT
Procedure: We first developed a standard assay procedure (the “Standard Test”). We used human breast milk collected and pooled from a newborn nursery as the β-glucuronidase source. The samples were stored at −20° C. The milk was thawed and diluted 10× with 0.2 M sodium acetate/glacial acetic acid (NaAC) buffer pH 4.5 just prior to being used. A 4.0 mM stock solution of 4-methylumbelliferyl β-D-glucuronide (MUG, Sigma M-9130 lot#75H3777) was prepared in 0.2 M NaAC buffer pH 4.5.
Triplicate test and blank tubes contained a reaction mixture consisting of 50 μL diluted breast milk and 50 μL of an inhibitor solution diluted with 0.2 M NaAC buffer pH 4.5. Controls were prepared that contained only 50 μL diluted breast milk and 50 μL 0.2 M NaAC buffer pH 4.5. The assay was started by adding 25 μl of the MUG (4.0 mM, 0.800 mM final concentration) to the test sample to start the reaction. The final volume of the reaction was 125 μL. Both blank and test samples were vortexed and incubated at 37° C. for 1 hour (or for shorter times if indicated).
The reaction was quenched in both the test and blank samples with 3.0 ml of glycine-carbonate (320 mM: 200 mM) buffer pH 10.0. The blank samples had 25 μl of the MUG (4.0 mM, 0.800 mM final) added to them and all tubes were vortexed.
The resulting fluorescence was read using a Perkin Elmer LS5-B fluorescence spectrophotometer (360 nm excitation, 445 nm emission, autorange scale). The amount of 4-methylumbelliferone (4-MU) released by the β-glucuronidase was calculated using a 4-MU quadratic standard curve and the Mathplot software. The velocity was calculated as pmoles of 4-MU formed per hour per ml undiluted breast milk.
We diluted pooled breast milk 20× with 0.2 M NaAC buffer pH 4.5. We diluted 2.2% w/v solution of Amicase (Sigma Cat. #A2427—a mixture of free amino acids with virtually no unhydrolyzed peptides, only minimal inorganic components are present, total nitrogen ˜12.8%, amino nitrogen ˜9.8%) with buffer 5×. We then incubated 50 μl milk with 50 μl buffer and Amicase. We then added 25 μl MUG to start the reaction. We then quenched with Na-carbonate buffer pH 10.0 and read fluorescence at 360 nm ex 445 nm em. Autorange scale. The mixture of amino acids was compared to controls and Nutramigen® as follows:
We then studied the effect of specific amino acid mixtures on β-glucuronidase activity. We diluted pooled breast milk 10× with 0.2 M NaAC buffer pH 4.5 and diluted 50×stock essential amino acid solution (Sigma Cat #M7020=L-arginine.HCl 6.32 g/L, L-cystine 1.2 g/L, L-histidine.HCl.H20 2.1 g/L, L-isoleucine 2.625 g/L, L-leucine 2.62 g/L, L-lyscine.HCl 3.625 g/L, L-methionine 0.755 g/L, L-phenylalanine 1.65 g/L, L-threonine 2.38 g/L, L-tryptophane 0.51 g/L, L-tyrosine 1.8 g/L, L-valine 2.34 g/L).
We also used a non-essential AA solution=Sigma Cat #M7145=L-alanine HCl 0.89 g/L, L-asparagine.H20 1.50 g/L, L-aspartic acid 1.33 g/L, L-glutamic acid 1.47 g/L, glycine 0.75 g/L, L-proline 1.15 g/L, L-serine 1.05 g/L.
We 5×diluted 100×stock essential AA solution. We incubated 50 μl diluted milk with 50 μl buffer (control), or the essential AA solution, or the non-essential AA solution, or Nutramigen® RTU, added 25 μl MUG to start the reaction, quenched with Na-carbonate buffer, and read fluorescence (360 nm excitation: 445 nm emission). The results are as follows:
We then analyzed inhibitory effect of each of the seven amino acids in the non-essential amino acid mixture. We diluted pooled breast milk 10× with 0.2 M NaAC buffer pH 4.5, and diluted Nutramigen® RTU (N) and Nutramigen® lipid-free supernatant (LFS) 5 fold with 0.2 M NaAC buffer pH 4.5.
We prepared stock solutions of each of the non-essential amino acids L-alanine (Ala), L-asparagine (Asn), L-aspartic acid (Asp), L-glutamic acid (Glu), glycine (Gly), L-proline (Pro), and L-Serine (Ser). All solutions were at pH 4.5. The final concentration of each amino acid in the assay was the same as when the amino acids were analyzed as a mixture. […]

[1] = cited from earlier work

Question: Which results are given for `O=C(O)[C@@H]1CCCN1` [Pro, L-proline]?
Answer: remaining activity at 46 µg/mL (β-glucuronidase; 46.0 μg/ml, read-out: % (activity relative to control)): 99.3%; mean (X̄) activity (β-glucuronidase; 46.0 μg/ml): 669.6 pmole/tube/hr; Activity (pmole/tube/hr) (β-glucuronidase; 46.0 μg/ml): 666.1 pmole/tube/hr and 679.7 pmole/tube/hr and 662.9 pmole/tube/hr

Question: What does the source list for `N[C@@H](CO)C(=O)O` [Ser, L-Serine]?
Answer: remaining activity at 42.2 µg/mL (β-glucuronidase; 42.2 μg/ml, read-out: % (activity relative to control)): 99.3%; mean (X̄) activity (β-glucuronidase; 42.2 μg/ml): 669.2 pmole/tube/hr; Activity (pmole/tube/hr) (β-glucuronidase; 42.2 μg/ml): 677.7 pmole/tube/hr and 670.6 pmole/tube/hr and 659.2 pmole/tube/hr

Question: Which serum bilirubin level ([1]; a premature infant with neonatal hyperbilirubinemia, Kohno et al. 1963) does the source give for `N[C@@H](CC(=O)O)C(=O)O` [aspartic acid] here?
Answer: lowered

Question: What about the “effect on serum bilirubin concentrations” value ([1]; double-blind, pre-term formula-fed infants, given each of the first six days of life, Gray et al. 1971) of the same molecule?
Answer: no effect

Question: And the serum bilirubin level ([1]; some cases of hyperbilirubinemia, Saito et al. 1964)?
Answer: decreased
